From patent US20240043473A1, “NOOTROPIC PEPTIDES FOR TREATING LYSOSOMAL STORAGE DISEASES” (Phoenix Nest Inc., priority 2021, published 2024)
Entries after “also recorded” stand apart in the source; their conditions may differ. No end group written: not given here.

How the values were obtained:
[1] = test system: Hgsnat^P304L MPS IIIC mice; test: Y-Maze test; assay type: in vivo, mouse; details: chronic daily intranasal 50 μg/kg BW from 3 weeks
Description: The spontaneous alternation behavior, spatial working memory and exploratory activity of mice were evaluated using a white Y-maze as follows. The maze consisted of three identical white Plexiglas arms (40×10×20 cm, 120° apart) under dim lighting conditions. Each mouse was placed at the end of one arm, facing the center, and allowed to explore the maze for 8 min. All experiments were performed at the same time of the day and by the same investigator to avoid circadian and handling bias. Sessions were video-recorded and arm entries were scored by a trained observer, unaware of the mouse genotype or treatment. Successful alternation was defined as consecutive entries into a new arm before returning to the two previously visited arms.
Alternation was calculated as: [number of alternations/total number of arm entries−2]×100.
Starting from 3 weeks of age, WT C57B16 and homozygous Hgsnat^P304L male and female mice were randomly divided in treatment and control groups (6-13 mice/sex/genotype/treatment; see Table I). The control group was daily administered with saline (5 μL to each nostril), while for the treatment group, saline was supplemented with 125 µg of AVP6/mL, which would result in a dose of approximately 50 μg/kg BW/day. […] When such signs were detected, the mice were studied by ERG and sacrificed within 1-2 days. […]

[2] = test system: Hgsnat^P304L MPS IIIC mice; test: Open Field test; assay type: in vivo, mouse; details: 6-month-old Hgsnat^P311L (P304L) mice
[3] = test system: primary hippocampal neurons of Hgsnat^P304L mice; test: Synaptic protein markers and BDNF in primary hippocampal neuronal cultures (immunocytochemistry); assay type: cell-based, mouse; details: 10 μM in culture media
Description: Model and Developmental time points: Primary hippocampal neuronal cultures established from E16 embryos of […] mice.
Method: The hippocampal neurons were cultured until DIV (Day In Vitro) 21 and 50% of media was changed every 3 days. AVP6 at a final concentration of 10 μM was added to the media when plating and during every media change. At DIV21 neurons were fixed and analysed by immunohistochemistry using markers of dendrites (MAP), axons (neurofilament protein, NF-H), and synaptic transmission (PSD95 and BDNF). Synaptic spine architecture and additional protein synaptic markers (Vglut/PSD95 and VAMP) will be studied.
Primary hippocampal neurons were cultured from the brains of embryo at gestational day 16 (E16). The hippocampi were isolated and treated with 2.5% trypsin solution (Sigma-Aldrich, T4674) for 15 min at 37° C. The cells were washed 3 times with Hank's Balanced Salt Solution (HBSS, Gibco, 14025-092) and mechanically dissociated by pipetting, using glass Pasteur pipettes with 3 different opening sizes (3, 2 and 1 mm). Then, they were counted with the viability dye trypan blue (ThermoFisher Scientific, 15250061), using a hemocytometer, and resuspended in Neurohasal media (Gibco, 21103-049) containing L-glutamine, B27, N2, penicillin and streptomycin. […]
Cultured mouse neurons at day in vitro (DIV) 21 or iPSC-derived neurons at D1V21 and DIV28 were fixed in 4% paraformaldehyde and 4% sucrose solution in PBS, pH 7.4, for 20 min. […] Coverslips were washed 3 times again in PBS and mounted on slides using ProLong Gold mounting medium, containing 4′,6-dianiidino-2-phenylindole (DAPI; Invitrogen, Cat #P36935), and analyzed by a Leica SP8-DSL or Leica TCS SPE confocal microscopes (×63 glycerol immersion objectives, N.A. 1.4). Images were processed with Leica Application Suite X (LAS-X) software or Photoshop 2021 (Adobe) and quantified using Fiji-ImageJ 1.50i software (National Institutes of Health, Bethesda, MD, USA). […] Soma or axon areas were defined by TUBB3, NEUN, or NF-M staining and, within this area, the appropriate markers were measured establishing a threshold. […]

[4] = single intranasal 10 μg/kg (low dose)
[5] = single intranasal 500 μg/kg (high dose)
[6] = DIV21, Hgsnat^P311L (P304L) neurons

AVP6: N-terminally acetylated Semax, a nootropic peptide having the amino acid sequence of MEHFPGP (SEQ ID NO:1) (Ac-MEHFPGP)
spatial memory (alternation between arms), Y-Maze ([1]; Hgsnat^P304L mice at 4 months): a significant difference between saline-treated and peptide-treated mice was observed only, when we pooled the data for both sexes together; also recorded: rescues deficits in spatial and short-term memory; also recorded: show the rescue of all above deficits | spatial memory (percent of alternation between arms), Y-Maze ([1]; Hgsnat^P304L mice at 6 months): demonstrated alternation similar to that of the WT mice; also recorded: partially rescues deficits in spatial and short-term memory; also recorded: show rescue of all above deficits | hyperactivity, Open Field [2, 4]: failed to rescue hyperactivity or reduced anxiety; also recorded: do not rescue hyperactivity | reduced anxiety, Open Field [2, 4]: failed to rescue hyperactivity or reduced anxiety | hyperactivity, Open Field [2, 5]: failed to rescue hyperactivity or reduced anxiety; also recorded: do not rescue hyperactivity | reduced anxiety, Open Field [2, 5]: failed to rescue hyperactivity or reduced anxiety | Synapsin 1-positive puncta [3, 6]: increase in Synapsin 1-positive puncta; also recorded: rescues deficit of both proteins | number of BDNF-positive punctae [3, 6]: increase in the number of BDNF-positive punctae; also recorded: rescues deficit of both proteins | levels of VGLUT1+, PSD-95+, SYN1+ and BDNF+ puncta ([3]; Hgsnat^P304L neurons): rescues reduced levels of synaptic markers; also recorded: significantly increased
